We go through seven molecules from PubChem BioAssay (NCI).

Several values for one entry are separate records, joined by “and”; a condition that tells them apart may be missing. Equal entries are not always repeated.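 Growth conditions: 96-well plates. Treatment: test compound, 48 hours, 5 concentrations. Analysis: linear interpolation between bracketing concentrations; unreached endpoints set to highest concentration. Here, GI50 denotes the concentration required for 50% inhibition of growth. At the TGI there is no net growth.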

Among the test systems are OVCAR-4 ovarian; HCT-15 colon; SF-539 CNS; OVCAR-8 ovarian; IGROV1 ovarian; CAKI-1 renal; SK-OV-3 ovarian; M14 melanoma; SF-295 CNS; SF-268 CNS.
Assay in all cases: growth of human tumour cells (NCI), 48 h

On to `CCOC(=O)/C(C#N)=C(N)/C(=N\Nc1cccc(C(F)(F)F)c1)C(=O)OCC`, for which the TGI in the test with OVCAR-4 ovarian, with HCT-15 colon, in the test on SF-539 CNS, in the test with OVCAR-8 ovarian, with IGROV1 ovarian and in the test with CAKI-1 renal was greater than 100 µM each time. The TGI in the test with SK-OV-3 ovarian, with M14 melanoma, in the test with SF-295 CNS and with SF-268 CNS was greater than 100 µM in each case.

For `CC1(C)N=C(N)N=C(N)N1c1ccc(OCCCCNC(=O)c2ccc(S(=O)(=O)F)cc2)c(Cl)c1`, the GI50 in the test on OVCAR-4 ovarian was 93.7 µM; with HCT-15 colon, 23.3 µM; in the test with SF-539 CNS, 7.11 µM; with OVCAR-8 ovarian, 4.82 µM; in the test on IGROV1 ovarian it was 4.78 µM; in the test on CAKI-1 renal, 43800 nM. In addition, the GI50 in the test on SK-OV-3 ovarian is greater than 100000 nM; in the test on M14 melanoma it was 8.89 µM; in the test on SF-295 CNS, 51.1 µM; with SF-268 CNS it was 6.21 µM. In addition, the TGI in the test with OVCAR-4 ovarian, in the test on HCT-15 colon, in the test on SF-539 CNS, in the test with OVCAR-8 ovarian, with IGROV1 ovarian and in the test on CAKI-1 renal was greater than 100 µM each time. The TGI in the test on SK-OV-3 ovarian, in the test on M14 melanoma, in the test on SF-295 CNS and in the test with SF-268 CNS was greater than 100 µM throughout.

As to `CNC(C)Cc1ccc(O)cc1` (stereo unspecified), the TGI in the test with OVCAR-4 ovarian, in the test with HCT-15 colon, in the test with SF-539 CNS, with OVCAR-8 ovarian, in the test with IGROV1 ovarian and with CAKI-1 renal was greater than 100 µM throughout. The TGI in the test with SK-OV-3 ovarian, in the test on M14 melanoma, in the test on SF-295 CNS and with SF-268 CNS was greater than 100 µM throughout.

For the molecule `C=C1C[C@@H]2[C@H](CC[C@]3(C)C(=O)CC[C@@H]23)[C@@]2(C)C=CC(=O)C=C12`, the GI50 is 42.7 µM in the test with OVCAR-4 ovarian; 10 µM with HCT-15 colon; 25.2 µM with SF-539 CNS; 6.93 µM in the test on OVCAR-8 ovarian; 34.4 µM with IGROV1 ovarian; greater than 55900 nM with CAKI-1 renal. The GI50 is 39100 nM in the test on SK-OV-3 ovarian, 20.4 µM in the test on M14 melanoma, 28.5 µM in the test on SF-295 CNS and 57.1 µM with SF-268 CNS. The TGI in the test on OVCAR-4 ovarian was greater than 100 µM; in the test with HCT-15 colon it was 34.3 µM; in the test on SF-539 CNS, 74.4 µM; with OVCAR-8 ovarian it was greater than 24 µM; with IGROV1 ovarian, greater than 100 µM; with CAKI-1 renal, greater than 100 µM. The TGI in the test with SK-OV-3 ovarian is greater than 100 µM; in the test on M14 melanoma, greater than 48.7 µM; with SF-295 CNS, 74.5 µM; with SF-268 CNS it was greater than 100 µM.

`CS(=O)(=O)Nc1cc(-c2ccc3ncnc(Nc4cccc(Cl)c4F)c3c2)cnc1Cl`: the GI50 is 5.82 µM with OVCAR-4 ovarian; 2.78 µM with HCT-15 colon; 2.26 µM in the test with SF-539 CNS; 4.03 µM with OVCAR-8 ovarian; 1.02 µM in the test on IGROV1 ovarian; 1820 nM in the test on CAKI-1 renal. Moreover, the GI50 was 1990 nM in the test on SK-OV-3 ovarian, 3.17 µM in the test on M14 melanoma, 2.47 µM in the test on SF-295 CNS and 1.41 µM in the test on SF-268 CNS. In addition, the TGI in the test with OVCAR-4 ovarian was greater than 100 µM; in the test with HCT-15 colon it was 14.5 µM; with SF-539 CNS, 7.98 µM; with OVCAR-8 ovarian, 58.5 µM; with IGROV1 ovarian it was 4.34 µM; in the test on CAKI-1 renal, 12.6 µM. Further, the TGI came to 8.81 µM in the test on SK-OV-3 ovarian, 17 µM with M14 melanoma, 12.5 µM in the test with SF-295 CNS and 19.3 µM with SF-268 CNS.

Turning to `O=[N+]([O-])c1ccc(NC(=S)N/N=C(\c2ccccc2)c2ccccn2)cc1`, the TGI is 3.42 µM and 3.51 µM with OVCAR-4 ovarian; 2.71 µM in the test on HCT-15 colon; 2.9 µM and 3.33 µM in the test with SF-539 CNS; 1.06 µM and 1.42 µM in the test on OVCAR-8 ovarian; 3.18 µM and 3.43 µM with IGROV1 ovarian; 3.02 µM and 2.97 µM with CAKI-1 renal. Moreover, the TGI is 4.09 µM and 2.95 µM in the test on SK-OV-3 ovarian; 2.33 µM and 2.77 µM with M14 melanoma; 3.5 µM and 2.98 µM in the test with SF-295 CNS; 1.9 µM and 1.84 µM in the test with SF-268 CNS. In addition, the GI50 in the test on SF-539 CNS is 1.41 µM; in the test with OVCAR-8 ovarian, 0.0275 µM; with CAKI-1 renal it was 1360 nM; with SK-OV-3 ovarian it was 2280 nM; in the test with M14 melanoma, 1.38 µM; in the test on SF-295 CNS it was 1.87 µM.

In the case of `Cc1cccc(O)c(=O)c1`, the TGI with OVCAR-4 ovarian, in the test with HCT-15 colon, in the test on SF-539 CNS, in the test on OVCAR-8 ovarian, in the test with IGROV1 ovarian and in the test with CAKI-1 renal was greater than 100 µM throughout. The TGI in the test on SK-OV-3 ovarian, in the test on M14 melanoma, with SF-295 CNS and in the test with SF-268 CNS was greater than 100 µM in each case.
